The source of these data is patent US20230174576A1, “BETA-STRAND BRIDGE PEPTIDE” (Xeno-Interface Inc., priority 2020, published 2023).

The subject of the data set is HeLa cells. Put plainly: Cell membrane permeability assay, evaluation by FACS. It is filed as cell-based. As to conditions: FITC-labeled peptide 0.1 μM, 37° C. On the procedure:
HeLa cells are grown in DMEM containing 10% fetal bovine serum and penicillin/streptomycin, treated with trypsin, washed twice with medium using a centrifuge, and seeded into multi-well plates for overnight incubation. FITC-labeled peptides are added to the cells at 37° C. and the cells are incubated at 37° C. The cells are washed twice with medium and twice with PBS, and treated with trypsin at 37° C. HeLa cells are collected and centrifuged, washed twice with medium and twice with PBS, and PBS containing propidium iodide is added to the cell. The cell membrane permeability of the peptides is quantitatively analyzed by FACS.
(Evaluation of Cell Membrane Permeability by FACS)

For the substance Ac—W I F [K] H R—NH2 [WT], the “Mean: FITC-A” value is reported as 3192.
